Key:
Type in all cases: in vivo
Settings in all cases: alone, 14 d
[1] = test system: Chenopodium album L. (common lambsquarters); assay: Postemergent herbicidal activity, greenhouse foliar application, CHEAL
Procedure: (§1) Evaluation of Postemergent Herbicidal Activity. Seeds or nutlets of the desired test plant species were planted in Sun Gro Metro-Mix® 360 planting mixture, which typically has a pH of 6.0 to 6.8 and an organic matter content of about 30 percent, in plastic pots with a surface area of 64 square centimeters (cm^2). When required to ensure good germination and healthy plants, a fungicide treatment and/or other chemical or physical treatment was applied. The plants were grown for 7-21 days (d) in a greenhouse with an approximate 15 hour (h) photoperiod which was maintained at about 23-29° C. during the day and 22-28° C. during the night. Nutrients and water were added on a regular basis and supplemental lighting was provided with overhead metal halide 1000-Watt lamps as necessary. The plants were employed for testing when they reached the first or second true leaf stage.
(§2) A weighed amount, determined by the highest rate to be tested, of each test compound was placed in a 25 milliliter (mL) glass vial and was dissolved in 4 mL of a 97:3 volume per volume (v/v) mixture of acetone and dimethyl sulfoxide (DMSO) to obtain concentrated stock solutions. […] The concentrated stock solutions obtained were diluted with 20 mL of an aqueous mixture containing acetone, water, isopropyl alcohol, DMSO, Atplus 411F crop oil concentrate, and Triton® X-155 surfactant in a 48.5:39:10:1.5:1.0:0.02 v/v ratio to obtain spray solutions containing the highest application rates. Additional application rates were obtained by serial dilution of 12 mL of the high rate solution into a solution containing 2 mL of a 97:3 v/v mixture of acetone and DMSO and 10 mL of an aqueous mixture containing acetone, water, isopropyl alcohol, DMSO, Atplus 411F crop oil concentrate, and Triton X-155 surfactant in a 48.5:39:10:1.5:1.0:0.02 v/v ratio to obtain ½×, ¼×, ⅛× and 1/16× rates of the high rate. Compound requirements are based upon a 12 mL application volume at a rate of 187 liters per hectare (L/ha). Formulated compounds were applied to the plant material with an overhead Mandel track sprayer equipped with 8002E nozzles calibrated to deliver 187 L/ha over an application area of 0.503 square meters (m^2) at a spray height of 18 inches ([…]) above the average plant canopy height. Control plants were sprayed in the same manner with the solvent blank.
(§3) Treatments consisted of the methyl ester of 4-amino-3-chloro-6-(4-chloro-2-fluoro-3-methoxyphenyl)pyridine-2-carboxylic acid (Cmpd 1) as technical grade material and cloransulam-methyl (FirstRate®) and diclosulam (Strongarm®) alone and in combination. The form of compound of formula (I) was applied on an acid equivalent basis, and cloransulam-methyl and diclosulam were applied on an active ingredient basis.
(§4) The treated plants and control plants were placed in a greenhouse as described above and watered by subirrigation to prevent wash-off of the test compounds. After 14 d, the condition of the test plants as compared with that of the untreated plants was determined visually and scored on a scale of 0 to 100 percent where 0 corresponds to no injury and 100 corresponds to complete kill.
(§5) Results in Tables 1 and 2 are greenhouse trial results for foliar applied compositions. The values reported are percent (%) control visually rated. Colby's equation was used to determine the herbicidal effects expected from the mixtures (Colby, S. R. Calculation of the synergistic and antagonistic response of herbicide combinations. Weeds 1967, 15, 20-22.). More specifically, the following equation was used to calculate the expected activity of mixtures containing two active ingredients, A and B:
(§6) Expected=A+B−(A×B/100) • A=observed efficacy of active ingredient A at the same concentration as used in the mixture; • B=observed efficacy of active ingredient B at the same concentration as used in the mixture.

[2] = test system: Ipomoea hederacea (L.) Jacq. (ivyleaf momingglory); assay: Postemergent herbicidal activity, greenhouse foliar application, IPOHE
Procedure: as §1, §2, §3, §4, §5, §6

[3] = test system: Brassica napus (winter oilseed rape); assay: Postemergent herbicidal activity, greenhouse foliar application, BRSNW
Procedure: as §1, §2, §3, §4, §5, §6

[4] = test system: Sorghum vulgare (common sorghum); assay: Postemergent herbicidal activity, greenhouse foliar application, SORVU
Procedure: as §1, §2, §3, §4, §5, §6

[5] = test system: Viola tricolor (L.) (wild pansy); assay: Postemergent herbicidal activity, greenhouse foliar application, VIOTR
Procedure: as §1, §2, §3, §4, §5, §6

[6] = test system: Setaria faberi Herrm. (giant foxtail); assay: Postemergent herbicidal activity, greenhouse foliar application, SETFA
Procedure: as §1, §2, §3, §4, §5, §6

[7] = test system: Amaranthus retroflexus L. (redroot pigweed); assay: Postemergent herbicidal activity, greenhouse foliar application, AMARE
Procedure: as §1, §2, §3, §4, §5, §6

[8] = test system: Cyperus esculentus L. (yellow nutsedge); assay: Postemergent herbicidal activity, greenhouse foliar application, CYPES
Procedure: as §1, §2, §3, §4, §5, §6

[9] = test system: Stellaria media (L.) Vill. (common chickweed); assay: Postemergent herbicidal activity, greenhouse foliar application, STEME
Procedure: as §1, §2, §3, §4, §5, §6

## CCOc1nc(F)cc2nc(S(=O)(=O)Nc3c(Cl)cccc3Cl)nn12 [diclosulam, N-(2,6-dichlorophenyl)-5-ethoxy-7-fluoro[1,2,4]triazolo[1,5-c]pyrimidine-2-sulfonamide]
[1]; 4.375 g ai/ha
  CHEAL Obs, percent (%) control rated visually: 0%
[1]; 8.75 g ai/ha
  CHEAL Obs, percent (%) control rated visually: 10%
[1]; 17.5 g ai/ha
  CHEAL Obs, percent (%) control rated visually: 40%
[2]; 4.375 g ai/ha
  IPOHE Obs, percent (%) control rated visually: 75%
[2]; 8.75 g ai/ha
  IPOHE Obs, percent (%) control rated visually: 80%
[2]; 17.5 g ai/ha
  IPOHE Obs, percent (%) control rated visually: 85%
[3]; 4.375 g ai/ha
  BRSNW Obs, percent (%) control rated visually: 80%
[3]; 8.75 g ai/ha
  BRSNW Obs, percent (%) control rated visually: 85%
[3]; 17.5 g ai/ha
  BRSNW Obs, percent (%) control rated visually: 90%
[4]; 4.375 g ai/ha
  SORVU Obs, percent (%) control rated visually: 0%
[4]; 8.75 g ai/ha
  SORVU Obs, percent (%) control rated visually: 0%
[4]; 17.5 g ai/ha
  SORVU Obs, percent (%) control rated visually: 0%
[5]; 4.375 g ai/ha
  VIOTR Obs, percent (%) control rated visually: 10%
[5]; 8.75 g ai/ha
  VIOTR Obs, percent (%) control rated visually: 50%
[5]; 17.5 g ai/ha
  VIOTR Obs, percent (%) control rated visually: 70%
[6]; 4.375 g ai/ha
  SETFA Obs, percent (%) control rated visually: 0%
[6]; 8.75 g ai/ha
  SETFA Obs, percent (%) control rated visually: 0%
[6]; 17.5 g ai/ha
  SETFA Obs, percent (%) control rated visually: 0%
[7]; 4.375 g ai/ha
  AMARE Obs, percent (%) control rated visually: 10%
[7]; 8.75 g ai/ha
  AMARE Obs, percent (%) control rated visually: 20%
[7]; 17.5 g ai/ha
  AMARE Obs, percent (%) control rated visually: 30%
[8]; 4.375 g ai/ha
  CYPES Obs, percent (%) control rated visually: 60%
[8]; 8.75 g ai/ha
  CYPES Obs, percent (%) control rated visually: 60%
[8]; 17.5 g ai/ha
  CYPES Obs, percent (%) control rated visually: 70%
[9]; 4.375 g ai/ha
  STEME Obs, percent (%) control rated visually: 0%
[9]; 8.75 g ai/ha
  STEME Obs, percent (%) control rated visually: 0%
[9]; 17.5 g ai/ha
  STEME Obs, percent (%) control rated visually: 0%

## CCOc1nc(F)cc2nc(S(=O)(=O)Nc3c(Cl)cccc3C(=O)OC)nn12 [cloransulam-methyl, methyl 3-chloro-2-[[(5-ethoxy-7-fluoro[1,2,4]triazolo[1,5-c]pyrimidin-2-yl)sulfonyl]amino]benzoate]
[1]; 4.375 g ai/ha
  CHEAL Obs, percent (%) control rated visually: 0%
[1]; 8.75 g ai/ha
  CHEAL Obs, percent (%) control rated visually: 10%
[1]; 17.5 g ai/ha
  CHEAL Obs, percent (%) control rated visually: 20%
[2]; 4.375 g ai/ha
  IPOHE Obs, percent (%) control rated visually: 80%
[2]; 8.75 g ai/ha
  IPOHE Obs, percent (%) control rated visually: 85%
[2]; 17.5 g ai/ha
  IPOHE Obs, percent (%) control rated visually: 85%
[3]; 4.375 g ai/ha
  BRSNW Obs, percent (%) control rated visually: 90%
[3]; 8.75 g ai/ha
  BRSNW Obs, percent (%) control rated visually: 93%
[3]; 17.5 g ai/ha
  BRSNW Obs, percent (%) control rated visually: 95%
[4]; 4.375 g ai/ha
  SORVU Obs, percent (%) control rated visually: 0%
[4]; 8.75 g ai/ha
  SORVU Obs, percent (%) control rated visually: 10%
[4]; 17.5 g ai/ha
  SORVU Obs, percent (%) control rated visually: 20%
[5]; 4.375 g ai/ha
  VIOTR Obs, percent (%) control rated visually: 10%
[5]; 8.75 g ai/ha
  VIOTR Obs, percent (%) control rated visually: 50%
[5]; 17.5 g ai/ha
  VIOTR Obs, percent (%) control rated visually: 65%
[6]; 4.375 g ai/ha
  SETFA Obs, percent (%) control rated visually: 0%
[6]; 8.75 g ai/ha
  SETFA Obs, percent (%) control rated visually: 0%
[6]; 17.5 g ai/ha
  SETFA Obs, percent (%) control rated visually: 0%
[7]; 4.375 g ai/ha
  AMARE Obs, percent (%) control rated visually: 0%
[7]; 8.75 g ai/ha
  AMARE Obs, percent (%) control rated visually: 10%
[7]; 17.5 g ai/ha
  AMARE Obs, percent (%) control rated visually: 20%
[9]; 4.375 g ai/ha
  STEME Obs, percent (%) control rated visually: 0%
[9]; 8.75 g ai/ha
  STEME Obs, percent (%) control rated visually: 0%
[9]; 17.5 g ai/ha
  STEME Obs, percent (%) control rated visually: 0%

## COC(=O)c1nc(-c2ccc(Cl)c(OC)c2F)cc(N)c1Cl [Cmpd 1, methyl 4-amino-3-chloro-6-(4-chloro-2-fluoro-3-methoxyphenyl)pyridine-2-carboxylate]
[1]; 1.25 g ae/ha
  CHEAL Obs, percent (%) control rated visually: 70%
[1]; 2.5 g ae/ha
  CHEAL Obs, percent (%) control rated visually: 80%
[1]; 5 g ae/ha
  CHEAL Obs, percent (%) control rated visually: 93%
[2]; 1.25 g ae/ha
  IPOHE Obs, percent (%) control rated visually: 10%
[2]; 2.5 g ae/ha
  IPOHE Obs, percent (%) control rated visually: 20%
[2]; 5 g ae/ha
  IPOHE Obs, percent (%) control rated visually: 20%
[3]; 1.25 g ae/ha
  BRSNW Obs, percent (%) control rated visually: 0%
[3]; 2.5 g ae/ha
  BRSNW Obs, percent (%) control rated visually: 5%
[3]; 5 g ae/ha
  BRSNW Obs, percent (%) control rated visually: 20%
[4]; 1.25 g ae/ha
  SORVU Obs, percent (%) control rated visually: 0%
[4]; 2.5 g ae/ha
  SORVU Obs, percent (%) control rated visually: 0%
[4]; 5 g ae/ha
  SORVU Obs, percent (%) control rated visually: 0%
[5]; 1.25 g ae/ha
  VIOTR Obs, percent (%) control rated visually: 10%
[5]; 2.5 g ae/ha
  VIOTR Obs, percent (%) control rated visually: 10%
[5]; 5 g ae/ha
  VIOTR Obs, percent (%) control rated visually: 30%
[6]; 1.25 g ae/ha
  SETFA Obs, percent (%) control rated visually: 0%
[6]; 2.5 g ae/ha
  SETFA Obs, percent (%) control rated visually: 0%
[6]; 5 g ae/ha
  SETFA Obs, percent (%) control rated visually: 30%
[7]; 1.25 g ae/ha
  AMARE Obs, percent (%) control rated visually: 50%
[7]; 2.5 g ae/ha
  AMARE Obs, percent (%) control rated visually: 60%
[7]; 5 g ae/ha
  AMARE Obs, percent (%) control rated visually: 90%
[8]; 1.25 g ae/ha
  CYPES Obs, percent (%) control rated visually: 50%
[8]; 2.5 g ae/ha
  CYPES Obs, percent (%) control rated visually: 90%
[8]; 5 g ae/ha
  CYPES Obs, percent (%) control rated visually: 93%
[9]; 1.25 g ae/ha
  STEME Obs, percent (%) control rated visually: 30%
[9]; 2.5 g ae/ha
  STEME Obs, percent (%) control rated visually: 20%
[9]; 5 g ae/ha
  STEME Obs, percent (%) control rated visually: 40%

From US20140213447A1, “HERBICIDAL COMPOSITIONS COMPRISING 4-AMINO-3-CHLORO-6-(4-CHLORO-2-FLUORO-3-METHOXYPHENYL) PYRIDINE-2-CARBOXYLIC ACID OR A DERIVATIVE THEREOF AND CERTAIN TRIAZOLOPYRIMIDINE SULFONAMIDES” (DOW AGROSCIENCES LLC, priority 2013, published 2014)
